Literature values as cited in patent publication US20250043462A1, “INSECT REPELLENT POLYETHYLENE TEREPHTHALATE FIBERS” (The Government of the United States of America, as …, priority 2023, published 2025).

Conditions: commercially available repellent sprays

Compound	duration of repellency before reapplication
CCN(CC)C(=O)c1cccc(C)c1 [DEET, N,N,-diethyl-meta-toluamide]	up to 10 h
CCC(C)OC(=O)N1CCCCC1CCO (centres unmarked) [Picaridin, 1-(1-methylpropoxycarbonyl)-2-(2-hydroxyethyl)piperidine]	≤ 8 h
